Measured values: a melting point compilation (Tetko et al.; mined from patent text by program, amines drawn as free bases though some values may be those of a salt)

Compound | melting point
CN1Cc2c(-c3nc(CN4Cc5ccccc5C4)no3)ncn2-c2ccccc2C1=O | 155 to 160 °C
Cc1ccc(N=C=S)c(C)c1COC(=O)[C@H]1[C@@H](C=C(Cl)C(F)(F)F)C1(C)C (relative stereo) | 60 °C
COc1ccnc(CS(=O)c2nc3cc(Cl)c(Cl)cc3[nH]2)c1C (stereo not given) | 173 °C
COc1ccc2c(c1)c(Cc1csc(-c3ccncc3)n1)c(C)n2C(=O)c1ccc(Cl)cc1 | 109 to 114 °C
O=Cc1ccc(OCc2csc(-c3ccccc3)n2)cc1 | 86 to 90 °C
Cc1nc(N)c2ncn(CCOCc3ccncc3)c2c1C | 195 to 196 °C
O=S1(=O)N=C2CCCN2c2ccc(Oc3cccc(-c4ccoc4)c3)cc21 | 128 to 132 °C
COc1ccc(C=O)cc1OCC(F)F | 66 to 68 °C
CC1(C)CCC(C)(C)c2cc(CCc3ncccn3)c(C=O)cc21 | 78 to 84.5 °C
O=C(c1ccc(Cl)cc1)c1cc(-c2ccccc2)c(N2CCOCC2)s1 | 187 to 188 °C
COc1cc(CNc2n[nH]c3ncnc(Nc4cccc(Cl)c4)c23)cc(OC)c1OC | 240 to 245 °C
O=C(NCc1ccc(/C=C/C(c2cc(Cl)c(Cl)c(Cl)c2)C(F)(F)F)cc1Cl)C(=O)NCC(F)(F)F (stereo not given) | 161 to 163 °C
CC(C)C(=O)c1cn(Cc2c(F)cccc2F)c2sc(-c3ccc([N+](=O)[O-])cc3)c(CBr)c2c1=O | 202 to 204 °C
O=C(O)CCCOc1ccccc1OCCC(c1ccccc1)(c1ccccc1)c1ccccc1 | 107 to 108 °C
CC(C)OC(=O)c1cc2c(cn1)[nH]c1cccc(Cc3ccccc3Cl)c12 | 258 to 260 °C
CC1(C)C=Cc2cc(S(=O)(=O)c3ccccc3)ccc2O1 | 95 to 96 °C
O=C1NCCCN2c3ccccc3CC12 (stereo not given) | 159 °C
CCOC(=O)CNc1ccc2ncccc2c1 | 122 to 123 °C
CN(C)C=Nc1nc(=O)n(S(=O)(=O)c2ccccc2)cc1F | 203 to 204 °C

Compound | melting point
C#Cc1cccc(Nc2ncnc3cc4c(cc23)OCO4)c1 | > 350 °C
CCOC(=O)C1N=C(c2ccccc2)c2cc(Cl)ccc2NC1=O (stereo not given) | 244 °C
Brc1c(OCc2ccc3ccccc3n2)ccc2ccccc12 | 130 to 132 °C
O=S(=O)(NCc1ccncc1)c1ccc(I)cc1 | 174 to 176 °C
O=C(c1c(F)cccc1F)N1COCN(c2ccc(SC(F)F)cc2F)C1=O | 77 to 79 °C
NC(=O)c1ncn2c(-c3ccc(N4CCOCC4)cc3)ccnc12 | 274 to 277 °C
CCc1cc(C#N)c(=O)[nH]c1C | 237 to 240 °C
Nc1c2c(nc3ccccc13)C1C=CC2C1 (stereo not given) | 123 °C
O=C1OC(=O)C(c2ccc(Cl)cc2)=C1Cl | 110 to 112 °C
NC1=NN(c2nc3ccccc3s2)C(c2ccccc2)C1 (stereo not given) | 270 to 272 °C
CCOC=Nc1sccc1C#N | 38 °C
O=c1n(-c2ccc(N3CCNCC3)cc2)cnn1CC(F)(F)C(F)F | 155 to 157 °C
CC1(Cl)C(=S)Nc2ccc(Cl)cc21 (stereo not given) | 248 to 251 °C
O=C(NC1N=C(c2ccccc2F)c2ccccc2NC1=O)c1ccccc1Cl (racemic) | 224 °C
COc1ccccc1-n1c(-c2cc(-c3ccc(Cl)cc3)c(N3CCOCC3)s2)nc2ccccc2c1=O | 216 to 217 °C
CS(=O)(=O)c1ccc(-c2[nH]c3ccc(Cl)cc3c2-c2ccccc2Cl)cc1 | 300 to 302 °C
N#CCCNC(=O)C1=CC(CF)(CF)Oc2ccc(C(F)(F)C(F)(F)F)cc21 | 144 to 145 °C
Fc1ccc2c(C3CCN(C(=S)Nc4ccccc4)CC3)nn(-c3ccccc3)c2c1 | 151 to 153 °C
CCC(CN1CCCC1)C(C#N)(c1ccccc1)c1ccccc1 (stereo not given) | 90 °C

Compound | melting point
CCCN1CCN(Cc2nc(-c3ccc4c(c3)Nc3ccccc3S4)cs2)CC1 | 189 to 190 °C
CCCC(=O)Nc1n[nH]c2c(F)c(F)ccc12 | 191 °C
CC(C)c1cc(-c2ccccc2)nc(-c2ccc(F)cc2)c1CO | 172 to 174 °C
COc1ccc2cc(CNc3ccc(O)cc3)ccc2c1 | 139 to 140 °C
N#CC(=NO)c1cccc(Br)c1 | 91 to 93 °C
NS(=O)(=O)c1ccc(-c2noc(-c3cnn4c(C(F)(F)F)cc(-c5ccc(C(F)(F)F)c(OCC(F)(F)F)c5)nc34)n2)s1 | 255 °C
COc1ccc(-c2nc(N)c(C#N)nc2-c2ccc(=O)n(C(C)C)c2)cc1 | 244 °C
O=[N+]([O-])c1cc(C(c2ccc(O)c([N+](=O)[O-])c2)(C(F)(F)F)C(F)(F)F)ccc1O | 119 to 122 °C
O=C1NCN(c2ccccc2)C12CCN(CC(O)COc1ccc(F)cc1)CC2 (stereo not given) | 152 to 154 °C
COC(=O)C1=CC(C)(C#N)N(c2cccc(Cl)c2Cl)N1 (stereo not given) | 66 to 67 °C
C[C@H](CO)Nc1nc(SCc2ccccc2F)nc2[nH]c(=O)cnc12 | 203 to 205 °C
CCCCCCCCCCCCCCCCCCNC(=O)NN | 100 °C
O=C1c2cc(Cl)ccc2-n2cncc2[C@@H]2CCCN12 | 216 to 217 °C
CC(C)(C)c1cc(CCc2ccccc2NC(=O)NCC(C)(C)c2ccc(Cl)c(Cl)c2)cc(C(C)(C)C)c1O | 165 to 167 °C
COC1CNCc2cc3ccccc3n21 (stereo not given) | 120 to 122 °C
Cc1ccc(-c2cn3ccc(Cl)cc3n2)cc1C | 144 °C
O=C1CC(c2ccccc2)C(c2ccccc2)=NN1 (stereo not given) | 221 to 223 °C
CC(C)(C)c1nc(/C=C/c2cn(-c3ccccc3)nc2O)cs1 | 209 to 211 °C

Continued, values first:

melting point | Compound
140 to 142 °C | COC1CCN2C(=O)c3cccc(NC(=O)Nc4cnc(C)cn4)c3C2C1 (stereo not given)
68 °C | CCCCCCCCC(=O)NC1CC(C)(C)N(CC#N)C(C)(C)C1
160 to 164 °C | Cc1ccsc1C(Cc1ccccc1NCN1C(=O)CCC1=O)N(C)C=O (stereo not given)
114 to 118 °C | CC(C)OC(=O)c1c(S(C)(=O)=O)ccc(C(=O)O)c1Cl
131 to 132 °C | CCOC(=O)c1ccc(C(C(N)=O)C(C)c2cc(OC)ccc2N2CCCCC2)cc1 (stereo not given)
72 to 75 °C | COc1cc(C#N)ccc1C(Br)C(Br)C(=O)c1cccc(C#N)c1 (stereo not given)
275 to 277 °C | Nc1c(F)c(N2C[C@@H](N)[C@@H](n3ccnn3)C2)c(F)c2c1c(=O)c(C(=O)O)cn2C1CC1 (relative stereo)
94 to 95 °C | COC(=O)COc1c(CCC(C)C)c(OC)cc(OC)c1C(=O)CCc1ccc(OC)c(O)c1
115 to 120 °C | CN1C(=O)C(CC(NC(=O)c2ccc(Cl)cc2)C(=O)O)c2ccccc21 (stereo not given)
33 to 35 °C | CCCCNc1c(C(=O)OCC)c(C)nc(Cl)c1[N+](=O)[O-]
63 to 64 °C | COC(=O)C=NOCC(=O)C=CN(C)C
146 to 148 °C | CCc1nc2c(N)nc3c(c2n1CCOCCS(C)(=O)=O)CCCC3
128 to 129 °C | CCCCOCCOc1ccc(-c2cc(/C=C/C(=O)O)c3c(c2)CCCN3C)cc1
99 to 101 °C | O=C(Nc1ccc(C2CCC(O)C2)cc1)OCc1ccccc1 (stereo not given)
204 to 205 °C | O=C(ON1C(=O)CCC1=O)c1ccc(-c2ccc(S(=O)(=O)NCCO)cc2)[nH]c1=O
115 °C | CC(=O)OC1CSC(O)C(OC(C)=O)C1OC(C)=O (stereo not given)
194 to 195 °C | COc1cc(OC)c(-c2cccs2)cc1/C=C/C(=O)c1ccc(S(=O)(=O)Nc2ccc(F)cn2)cc1
189 to 192 °C | Cc1cc(Br)c2c(c1)/C(=N\NC(N)=O)C(=O)N2CCN(C(C)C)C(C)C
196 to 200 °C | C[C@H]1OC(=O)[C@@H](N)[C@@H]1C(=O)O
89 to 91 °C | CC(Cc1c[nH]c2ccccc12)(NC(=O)OC1C2CC3CC(C2)CC1C3)C(=O)NCCc1ccccn1 (stereo not given)
240 °C | N#CC(=Cc1ccc(O)c(O)c1)C(=O)O
162 to 165 °C | CC(=O)Nc1nc2c(ncn2COCC(COC(C)=O)OC(C)=O)c(=O)[nH]1 (stereo not given)

melting point | Compound
148 to 149 °C | CCN(CC)CCNC(=O)c1cc(Cl)c(NS(=O)(=O)c2ccc3ccccc3c2)cc1OC
188 to 190 °C | Cc1ccc(Cn2c(=O)cc(C(C)C(=O)O)c3cc(C)ccc32)cc1 (stereo not given)
72 to 78 °C | Cc1nnc(COc2ccc(OCC(C)Oc3ccccn3)cc2)s1 (stereo not given)
120 to 123 °C | COC(=O)c1c(Cl)cc(Cl)cc1NC(=O)CSc1ccc(NS(=O)(=O)c2ccc(Cl)cc2)cc1
198 to 199 °C | COc1cc(OC)c(-c2cccs2)cc1/C=C/C(=O)c1ccc(S(=O)(=O)Nc2ccon2)cc1
121 to 124 °C | COc1ccc(NC(=O)CN2CCC(Cc3ccc(F)cc3)CC2)cc1
142 to 146 °C | CC(O)=C(C#N)C(=O)Oc1cccc(Cl)c1Cl
205 to 207 °C | CC(C)(C)OC(=O)N1CCC(c2c[nH]c3ccc(N)cc23)CC1
> 290 °C | CN1CCc2c(O)c(F)cc3c(=O)c(C(=O)O)cn1c23
166 to 167 °C | COC(=O)C(O)=CC(=O)c1ncnc2c1ncn2Cc1ccccc1
201 to 204 °C | O=C(ON1C(=O)CCC1=O)c1ccc(-c2ccc(S(=O)(=O)N3CCCC(CO)C3)cc2)[nH]c1=O (stereo not given)
202 to 203 °C | CCn1c(=O)c2c(nc(/C=C/c3cccc(OC)c3OC(C)=O)n2C)n(CC)c1=O
169 °C | CCCCCCCCCCCCCCCCCCNC(=O)C(N)=O
95.4 to 96.5 °C | CC(=NO)c1ncnc(OC(C)C)c1C
123 to 125 °C | COC(=O)c1nc(-c2ccc([Si](C)(C)C)c(F)c2F)c(F)c(N)c1OC
122 to 124 °C | CC(C)(C)NC(=O)[C@@H]1[C@@H](O)CCN1C(=O)OC(C)(C)C
178 to 180 °C | CC(=O)c1ccc(-c2ccnc(Nc3ccc4c(c3)OCCO4)c2)cc1
175 °C | C=C(C(=O)O)c1ccc2cc(OC)ccc2c1
151 to 154 °C | CNN1C(=O)CSC1=Cc1cc(C(C)(C)C)c(O)c(C(C)(C)C)c1
79 to 80 °C | COc1ccc(CC2=NC(C)(C)CO2)cc1NC(=O)C(C)(C)CCCOc1cc(C)ccc1C
180 to 182 °C | O=C(Cc1ccccc1C(=O)O)Nc1cccc(/C=C/c2nc(C3CCCCCCC3)cs2)c1
119 to 120 °C | COc1ccc(C(=O)c2c(-c3ccc(OC)cc3)sc3cc(OC)ccc23)cc1
